Data: patent US20200061076A1, “METHODS OF TREATING LEUKODYSTROPHIES” (Ramot at Tel-Aviv University Ltd., priority 2017, published 2020)

How the values were obtained:
[1] = system: Mut MEFs (primary fibroblasts from Eif2b5 R132H/R132H mice); test: Image-based single cell analysis of ROS level (cellROX); design: species or system mouse; settings: 10 μM, 24 hours incubation, compared with WT level (FIG. 3)
Procedure: Mut MEFs were treated with the indicated compounds at 10 μM for 24 hours followed by staining with fluorogenic dyes and image-based single-cell analysis. Shown is average effect on ROS level from at least 3-independent experiments ±SEM. All values are statistically significant, p<0.02. The extreme SEM points of all values are below the 90% cut-off, therefore the actual average reduction is between 12% and 29%. […] Mut MEFs were incubated or not for 24 hours with 10 μM of the indicated compound, washed and stained with Crystal Violet. Shown is average absorbance at 570 nm normalized (%) to non-treated cells of 3 independent experiments ±SEM, * p=0.0003. […] Mut MEFs were incubated or not for 24 hours with 10 μM of the indicated compound, washed and stained with JC1 and Hoechst followed by image-based single-cell analysis. […]
To assay the compounds, cellROX, a reactive oxygen species (ROS) fluorescent detector and a preferred in-situ mitochondrial content detector, was used for single cell-based imaging analysis as detailed previously (Raini et al., 2017). […] Compounds toxicity was evaluated by testing cell survival following 24 hours incubation with 10 μM of each compound using crystal violet staining (FIG. 14B). […] The other 19 compounds were not toxic; therefore, maximal working concentrations tolerated by the cells were further evaluated (Table 3 hereinbelow).

[2] = system: Mut MEFs; test: JC1 staining of intact and damaged mitochondria (mitochondrial membrane potential); type: cell-based, mouse; settings: Mut MEFs

SMILES: Cc1cccc(OCCCCCN2CCOCC2)c1 [H8 (p8G5), 4-[5-(3-methylphenoxy)pentyl]morpholine]
- level of ROS (CellROX) in Mut cells [1]: corrected the abnormal level of ROS
- red/green JC1 signal (mitochondria with high to low membrane potential) ([2]; 1 μM and 10 μM, 6 hours (FIG. 6)): increased the ratio between the content of mitochondria with high to low membrane potential
- effect on mitochondrial health (JC1, intact and damaged mitochondria) ([2]; 10 μM, 24 hours (FIG. 14C)): significant beneficial effect on mitochondrial health
